Tested on: primary mouse hepatocytes
Test: Gene expression (Affymetrix Mouse Genome 430 2.0) in primary mouse hepatocytes, true vs false GTX, 24 h and 48 h
Settings: log2, corrected for vehicle control

c1ccc2c(c1)cc1ccc3cccc4ccc2c1c34 [BaP, Benzo(a)pyrene]
Gene expression data AF000969 (Cadps2) (24 h average): −1.91
Gene expression data AF022072 (Grb10) (24 h average): −0.2844
Gene expression data AF065917 (Lif) (24 h average): 0.9227
Gene expression data AF297615 (Ggta1) (24 h average): 1.735
Gene expression data AI594683 (Dmn) (24 h average): 0.731
Gene expression data AI596632 (Ptprg /// LOC632664) (24 h average): −1.8362
Gene expression data AI987929 (Ndrg1) (24 h average): −0.3648
Gene expression data AK004419 (Fbxl17) (24 h average): −1.001
Gene expression data AK005731 (1700007K13Rik) (24 h average): 2.016
Gene expression data AK007766 (1810044A24Rik) (24 h average): −1.288
Gene expression data AK007854 (1810053B23Rik) (24 h average): 0.3514
Gene expression data AK009736 (Gpr137b /// LOC664862 /// LOC673335) (24 h average): 0.2174
Gene expression data AK010447 (Smyd3) (24 h average): −1.0413
Gene expression data AK014608 (4632434l11Rik) (24 h average): 1.665
Gene expression data AK019979 (2610528E23Rik) (24 h average): −0.6154
Gene expression data AV095209 (Mthfd1l) (24 h average): −0.5885
Gene expression data AV141095 (1110033M05Rik) (24 h average): −1.058
Gene expression data AV173571 (1700106N22Rik) (24 h average): −1.123
Gene expression data AV219418 (Ldhb) (24 h average): 0.2781
Gene expression data AV223474 (Zdhhc14) (24 h average): −1.375
Gene expression data AV298304 (Homez) (24 h average): 0.6204
Gene expression data AV327248 (Zfp365 /// LOC674611) (24 h average): 1.102
Gene expression data AV377066 (9130221J18Rik) (24 h average): 0.7572
Gene expression data AW240761 (Tbc1d5) (24 h average): −0.703
Gene expression data AW543460 (Pard3) (24 h average): −0.6194
Gene expression data AW543723 (24 h average): 1.993
Gene expression data AW986246 (Maoa) (24 h average): 0.1617
Gene expression data BB027848 (4732466D17Rik) (24 h average): 0.0761
Gene expression data BB043558 (9230114K14Rik) (24 h average): 1.247
Gene expression data BB275142 (AW456874) (24 h average): 1.003
Gene expression data BB308836 (Ppm1l) (24 h average): −0.6122
Gene expression data BB318221 (Zdhhc14) (24 h average): −1.679
Gene expression data BB463610 (4632434l11Rik) (24 h average): 2.144
Gene expression data BB526605 (Mipol1) (24 h average): −0.7419
Gene expression data BB770528 (Rai2) (24 h average): 0.6977
Gene expression data BB821363 (Scfd2) (24 h average): −1.403
Gene expression data BC004827 (Psat1) (24 h average): −0.04097
Gene expression data BC008626 (Icam1) (24 h average): 0.8234
Gene expression data BC010462 (BC010462) (24 h average): 0.6663
Gene expression data BC012247 (Dcxr) (24 h average): 0.4451
Gene expression data BC012260 (Psmf1) (24 h average): 0.3127
Gene expression data BC015270 (Hist2h3c2) (24 h average): 0.7908
Gene expression data BC016073 (Cdkal1) (24 h average): −0.6631
Gene expression data BC016265 (Ube2e2) (24 h average): −0.751
Gene expression data BC019882 (Acaa1b) (24 h average): 2.0133
Gene expression data BC025501 (Aaas) (24 h average): 1.5389
Gene expression data BC025837 (Sbk1) (24 h average): 0.3802
Gene expression data BC025915 (Cova1) (24 h average): −0.5396
Gene expression data BC026422 (Tgm1) (24 h average): 0.6019
Gene expression data BF719766 (Thyn1) (24 h average): 0.9747
Gene expression data BG065754 (Ccng1) (24 h average): 0.8607
Gene expression data BG066903 (Kif16b) (24 h average): −0.133
Gene expression data BG069873 (Gnb1l) (24 h average): 1.299
Gene expression data BG070887 (Gtdc1) (24 h average): −0.9734
Gene expression data BG076151 (Ppm1d) (24 h average): 0.728
Gene expression data BG261907 (Large) (24 h average): −1.3429
Gene expression data BI651416 (Cdc42bpg) (24 h average): 1.679
Gene expression data BI660702 (Ell3) (24 h average): 1.3867
Gene expression data BM198879 (Ercc5) (24 h average): 1.054
Gene expression data BM230508 (A030007D23Rik) (24 h average): 1.297
Gene expression data NM_007987 (Fas) (24 h average): 0.8287
Gene expression data NM_008522 (Ltf) (24 h average): 1.114
Gene expression data NM_008576 (Abcc1) (24 h average): 0.1024
Gene expression data NM_011176 (St14) (24 h average): 1.508
Gene expression data NM_011316 (Saa4) (24 h average): 0.1871
Gene expression data NM_012006 (Acot1) (24 h average): 3.255
Gene expression data NM_013866 (Zfp385) (24 h average): 0.776
Gene expression data NM_018770 (Igsf4a) (24 h average): −0.8982
Gene expression data NM_021451 (Pmaip1) (24 h average): 0.6364
Gene expression data NM_025770 (Atg10) (24 h average): −1.053
Gene expression data NM_028803 (Gbe1) (24 h average): −0.5416
Gene expression data NM_030697 (Ankrd47) (24 h average): 1.4578
Gene expression data NM_053168 (Trim11) (24 h average): 0.823
Gene expression data NM_134188 (Acot2) (24 h average): 0.5856
Gene expression data Y15910 (Diap2) (24 h average): −1.352
Gene expression AA561726 average (48 h): −1.7432
Gene expression AF000969 average (48 h): −2.251
Gene expression AF022072 average (48 h): −1.018
Gene expression AF033112 average (48 h): 1.4254
Gene expression AF055573 average (48 h): −1.5573
Gene expression AF069954 average (48 h): 0.8863
Gene expression AF297615 average (48 h): 1.572
Gene expression AF335325 average (48 h): 1.4875
Gene expression AI594683 average (48 h): 1.466
Gene expression AI747296 average (48 h): −2.124
Gene expression AK005731 average (48 h): 3.0498
